According to article PMC4268798, “Acetylcholinesterase of the sand fly, Phlebotomus papatasi (Scopoli): construction, expression and biochemical properties of the G119S orthologous mutant” (Parasites & Vectors, 2014):

Key:
rPpAChE1 = molecular target: T1, rPpAChE1 (Phlebotomus papatasi, UniProt M1F887); assay: biochemical
T1 construct: gene AChE; cell lysate assayed

CC(=O)SCC[N+](C)(C)C = assay: modified Ellman assay; type: biochemical, Phlebotomus papatasi

Question: `CNC(=O)Oc1cccc(C(C)(C)C)c1` [compound 2, 3-(tert-butyl)phenyl methylcarbamate] was tested. Which IC50 (rPpAChE1) did it give?
Answer: 36 nM

Question: For `CC[n+]1c(-c2ccccc2)c2cc(N)ccc2c2ccc(N)cc21` [Ethidium Bromide], which IC50 (rPpAChE1) is on record?
Answer: 17100 nM

Question: Which IC50 (rPpAChE1) does the source give for `CNC(=O)Oc1cccc2c1OC(C)(C)C2` [Carbofuran] here?
Answer: 24 nM

Question: `CCOC(=O)CC(SP(=O)(OC)OC)C(=O)OCC` (stereo not drawn) [Malaoxon] was tested. Which IC50 (rPpAChE1) did it give?
Answer: 4.36 nM

Question: Which IC50 (rPpAChE1) does the source give for `CNC(=O)Oc1ccccc1OC(C)C` [Propoxur] here?
Answer: 220 nM

Question: Which IC50 (rPpAChE1) does the source give for `CCC(C)n1cc(OC(=O)NC)cn1` (stereo not drawn) [compound 3, 1-(sec-butyl)-1H-pyrazol-4-yl methylcarbamate] here?
Answer: 13 nM

Question: Which IC50 (rPpAChE1) does the source give for `COc1cc2c3cc1Oc1cc(ccc1O)C[C@@H]1c4c(cc(OC)c(O)c4Oc4ccc(cc4)C[C@@H]3N(C)CC2)CC[N+]1(C)C` [Tubocurarine] here?
Answer: 143000 nM

Question: With `Nc1c2c(nc3ccccc13)CCCC2` [Tacrine] as the molecule, how does the IC50 (rPpAChE1) read?
Answer: 67 nM

Question: With `CNC(=O)Oc1cnn(CC(C)C)c1` [compound 5, 1-isobutyl-1H-pyrazol-4-yl methylcarbamate] as the molecule, how does the IC50 (rPpAChE1) read?
Answer: 76 nM

Question: rPpAChE1 (Phlebotomus papatasi) was tested. Which Km (CC(=O)SCC[N+](C)(C)C) did it give?
Answer: 24 µM

Question: `CNC(=O)Oc1cnn(CCC(C)C)c1` [compound 4, 1-isopentyl-1H-pyrazole-4-yl methylcarbamate] was tested. Which IC50 (rPpAChE1) did it give?
Answer: 75 nM

Question: For `CNC(=O)Oc1ccc2c(c1)[C@]1(C)CCN(C)[C@@H]1N2C` [Eserine], which IC50 (rPpAChE1) is on record?
Answer: 3.2 nM
